# US20240299379A1, “COMPOSITIONS OF CLOFAZIMINE AND AMIKACIN FOR PULMONARY ADMINISTRATION IN THE TREATMENT OF RESPIRATORY DISEASES” (BOARD OF REGENTS, THE UNIVERSITY OF TEXAS SYSTEM, priority 2021, published 2024)
# Counter-ions that a name gives are not always drawn.
# Key:
# [1] = Geometric particle size distribution by laser diffraction (Sympatec HELOS, RODOS dry dispersion); format: physicochemical; conditions: micronized with Model 00 Jet-O-Mizer Air Jet Mill
# Protocol: PSD was calculated using Fraunhofer theory using the Sympatec laser diffractor. […] Measurements were taken every 5 msec […] following powder dispersion. Measurements that were between 5-25% optical density were averaged to determine particle size distribution. Data was analyzed using HELOS software version 5.6.0.0 with an HRLD model to convert the scattering pattern to a particle size distribution.
# [2] = Aerosol performance of clofazimine and amikacin co-administered from dual chamber Dualhaler DPI, Next Generation Impactor; format: physicochemical; conditions: Dualhaler device
# [3] = Aerosol performance of physical blends, Next Generation Impactor, medium resistance RS01 DPI; format: physicochemical; conditions: RS01 device
# Protocol: (§1) The aerosol performance of the physically blended mixtures was determined using cascade impaction, specifically as Next Generation Impactor, as prescribed by the United States Pharmacopeia chapter 601. For these studies, a medium resistance Model 7 RS01 dry powder inhaler (DPI) manufactured by Berry Global Osnago was utilized. 20 mg of the physical blends (1:0.5 CFZ-AMK, 1:2 CFZ-AMK, 1:4 CFZ-AMK, or 1:8 CFZ-AMK) or 10 mg of air jet milled clofazimine or air jet milled amikacin sulfate alone was loaded into a size 3 hydroxypropyl methylcellulose (HPMC) capsule. The device was actuated at an airflow rate to induce a 4 kPa pressure drop (i.e., 80 L/min) or 2 kPa pressure drop (i.e., 56.6 L/min) through the device for period of time sufficient to draw 4 L of air through the apparatus. To reduce particle bounce and re-entrainment, the NGI plates were coated with 1% (v/v) glycerin in ethanol and allowed to dry prior to performing the experiment. After actuation, powder was collected from the capsule, device, induction port, and stages of the Next Generation Impactor by adding a volume of 75/25 acetonitrile/water containing 0.16 mg/mL polysorbate 80 that was sufficient to dissolve the deposited powder. Phase separation of the solution into an organic phase containing clofazimine and an aqueous phase containing amikacin was induced by adding a volume of 5 M ammonium acetate equivalent to 16.7% of the original solution volume. The organic and aqueous phases were analyzed using high pressure liquid chromatography and concentration of each drug was quantified using a previously prepared standard curve.
# (§2) Stage 1-7 cut-off diameters were determined using equation 1 and MOC cut-off diameters were determined using equation 2.
# (§3) where D50,Q is the cutoff diameter at the flow rate, Q, and the subscript, n, refers to the archival reference value for Qn=60 L/min, and the values for the exponent, x, were determined by the archival NGI stage cut size-flow rate calculations, as determined by Marple et al.
# (§4) The emitted fraction (EF) was calculated as the total drug emitted from the device as a percentage of the total mass of drug collected (i.e., recovered dose). The respirable fraction that was less than 5 μm aerodynamic diameter and less than 3 μm aerodynamic diameter corresponded to the percentage of the recovered dose predicted to have the aerodynamic diameter below 5 μm and 3 μm. The respirable fraction values were interpolated from a graph with the cumulative percentage of the emitted dose deposited downstream from an NGI stage as the ordinate and the particle cutoff size of that stage as the abscissa. For each sample, the mass median aerodynamic diameter (MMAD), which represents the mass-based median point of the aerodynamic particle size distribution (APSD), and geometric standard deviation (GSD), which represents the spread of the APSD, were determined by plotting the cumulative percentage of mass less than the stated aerodynamic size cut (expressed as Probits) against the aerodynamic diameter (log scale). Distributions were log normal. A linear regression was performed to determine the aerodynamic diameters corresponding to the 50% percentile (Probit 5) to determine the MMAD, and the aerodynamic diameters corresponding the 15.87% percentile (Probit 4) and 84.13% percentile (Probit 6) to calculate the GSD. The results of this analysis are shown in Table 5-8 and FIG. 2, and are presented as mean±standard deviation (n=3)
# [4] = Aerosol performance of composite spray dried particles, Next Generation Impactor, medium resistance RS01 DPI; format: physicochemical; conditions: spray dried powder, RS01 device
# Protocol: as §1, with “the composite spray dried particles” for “the physically blended mixtures”, “the spray dried powders (1:2” for “the physical blends (1:0.5 CFZ-AMK, 1:2”, “or spray dried” for “or air jet milled”, “capsule. For these studies, spray dried clofazimine was not tested due to the extremely low powder yield and the tendency of the particles to dry as large needle structures.” for “capsule.”
# as §2, §3
# as §4, with “Tables 11-14” for “Table 5-8”, “11,” for “2,”
# [5] = tested on: Mab-infected THP-1 macrophages; experiment: In vitro efficacy study, micronized CFZ particles added to media containing AMK; format: cell-based, Mycobacterium abscessus (Mab)
# [6] = cited from earlier work
# [7] = in vivo, po; cited from earlier work
# [8] = in vivo, po; cited from earlier work; remark: listed apart in the source
# [9] = Solubility of the drug substances in solvents; format: physicochemical; conditions: ethanol and isopropanol, organic solvent or mixture
# [10] = 2 kPa pressure drop, amikacin component (Table 17)
# [11] = 4 kPa pressure drop, amikacin component
# [12] = 2 kPa pressure drop, amikacin component (Table 7)
# [13] = 2 kPa pressure drop, amikacin component as titled (Table 18, reference Jet milled CFZ alone)
# [14] = 4 kPa pressure drop, clofazimine component
# [15] = 2 kPa pressure drop, clofazimine component
# [16] = 4 kPa pressure drop, clofazimine component (Table 12)
# [17] = 2 kPa pressure drop, amikacin component as titled (Table 8, reference Jet milled CFZ alone)
# [18] = 4 kPa pressure drop, clofazimine component as titled (Table 13, reference Spray dried AMK-S alone)
compound,measurement,setting,value
"NCC[C@H](O)C(=O)NC1C[C@H](N)[C@@H](O[C@H]2O[C@H](CN)[C@H](O)[C@H](O)[C@H]2O)[C@H](O)[C@H]1O[C@H]1O[C@H](CO)[C@@H](O)[C@H](N)[C@H]1O (stereo partly drawn) [AMK sulfate, (2S)-4-amino-N-[(2S,3S,4R,5S)-5-amino-2-[(2S,3R,4S,5S,6R)-4-amino-3,5-dihydroxy-6-(hydroxymethyl)oxan-2-yl]oxy-4-[(2R,3R,4S,5R,6R)-6-(aminomethyl)-3,4,5-trihydroxy-oxan-2-yl]oxy-3-hydroxy-cyclohexyl]-2-hydroxybutanamide]",X50 particle diameter,[1],4.04 μm
same,X90 particle diameter,[1],7.72 μm
"NCC[C@H](O)C(=O)NC1C[C@H](N)[C@@H](O[C@H]2O[C@H](CN)[C@H](O)[C@H](O)[C@H]2O)[C@H](O)[C@H]1O[C@H]1O[C@H](CO)[C@@H](O)[C@H](N)[C@H]1O (stereo partly drawn) [Jet milled AMK-S alone, (2S)-4-amino-N-[(2S,3S,4R,5S)-5-amino-2-[(2S,3R,4S,5S,6R)-4-amino-3,5-dihydroxy-6-(hydroxymethyl)oxan-2-yl]oxy-4-[(2R,3R,4S,5R,6R)-6-(aminomethyl)-3,4,5-trihydroxy-oxan-2-yl]oxy-3-hydroxy-cyclohexyl]-2-hydroxybutanamide]",EF (emitted fraction),[2]; [10],14.1 ± 23.7%
same,RF < 3 μm,[2]; [10],15.5 ± 2.4%
same,RF < 5 μm,[2]; [10],23.4 ± 4.6%
same,EF (emitted fraction),[2]; [11],47.8 ± 13.8%
same,RF < 3 μm,[2]; [11],22.6 ± 1.4%
same,RF < 5 μm,[2]; [11],28.6 ± 1.5%
same,EF (emitted fraction),[3]; [12],77.2 ± 11.2%
same,MMAD,[3]; [12],8.23 ± 0.57 μm
same,RF < 3 μm,[3]; [12],30.4 ± 3.4%
same,RF < 5 μm,[3]; [12],48.3 ± 3.8%
same,EF (emitted fraction),[3]; [11],82.1 ± 1.2%
same,MMAD,[3]; [11],9.07 ± 1.76 μm
same,RF < 3 μm,[3]; [11],28.2 ± 4.9%
same,RF < 5 μm,[3]; [11],40.8 ± 7.2%
"CC(C)N=c1cc2n(-c3ccc(Cl)cc3)c3ccccc3nc-2cc1Nc1ccc(Cl)cc1 [Jet milled CFZ alone, N,5-bis(4-chlorophenyl)-3-(1-methylethylimino)-5H-phenazin-2-amine]",EF (emitted fraction),[2]; [13],41.2 ± 4.1%
same,RF < 3 μm,[2]; [13],19.8 ± 2.2%
same,RF < 5 μm,[2]; [13],26.1 ± 3.1%
same,EF (emitted fraction),[2]; [14],44.9 ± 16.1%
same,RF < 3 μm,[2]; [14],25.1 ± 10.9%
same,RF < 5 μm,[2]; [14],30.8 ± 12.6%
same,EF (emitted fraction),[4]; [15],80.7 ± 9.7%
same,MMAD,[4]; [15],10.08 ± 7.79 μm
same,RF < 3 μm,[4]; [15],37.5 ± 18.2%
same,RF < 5 μm,[4]; [15],51.0 ± 19.0%
same,EF (emitted fraction),[4]; [16],76.2 ± 4.1%
same,MMAD,[4]; [16],5.36 ± 0.53 μm
same,RF < 3 μm,[4]; [16],47.4 ± 3.7%
same,RF < 5 μm,[4]; [16],58.8 ± 4.7%
same,Intracellular drug accumulation with increasing doses,[5]; increasing doses of micronized CFZ,notable increase in intracellular drug accumulation
same,Change in intracellular bacterial burden with increasing doses,"[5]; increasing doses of micronized CFZ, with AMK",no statistically significant changes
same,Intracellular Mab bacilli compared to the use of AMK alone,[5]; micronized CFZ particles added to media containing 40 μg/mL AMK,statistically significant reduction
same,EF (emitted fraction),[3]; [17],80.7 ± 9.7%
same,MMAD,[3]; [17],10.08 ± 7.79 μm
same,RF < 3 μm,[3]; [17],37.5 ± 18.2%
same,RF < 5 μm,[3]; [17],51.0 ± 19.0%
same,EF (emitted fraction),[3]; [14],76.2 ± 4.1%
same,MMAD,[3]; [14],5.36 ± 0.53 μm
same,RF < 3 μm,[3]; [14],47.4 ± 3.7%
same,RF < 5 μm,[3]; [14],58.8 ± 4.7%
"NCC[C@H](O)C(=O)NC1C[C@H](N)[C@@H](O[C@H]2O[C@H](CN)[C@H](O)[C@H](O)[C@H]2O)[C@H](O)[C@H]1O[C@H]1O[C@H](CO)[C@@H](O)[C@H](N)[C@H]1O (stereo partly drawn) [Spray dried AMK-S alone, (2S)-4-amino-N-[(2S,3S,4R,5S)-5-amino-2-[(2S,3R,4S,5S,6R)-4-amino-3,5-dihydroxy-6-(hydroxymethyl)oxan-2-yl]oxy-4-[(2R,3R,4S,5R,6R)-6-(aminomethyl)-3,4,5-trihydroxy-oxan-2-yl]oxy-3-hydroxy-cyclohexyl]-2-hydroxybutanamide]",EF (emitted fraction),[4]; [11],61.9 ± 8.6%
same,MMAD,[4]; [11],6.23 ± 0.97 μm
same,RF < 3 μm,[4]; [11],44.5 ± 3.6%
same,RF < 5 μm,[4]; [11],50.8 ± 5.8%
same,EF (emitted fraction),[4]; [18],43.3 ± 8.7%
same,MMAD,[4]; [18],11.29 ± 2.93 μm
same,RF < 3 μm,[4]; [18],31.8 ± 6.9%
same,RF < 5 μm,[4]; [18],37.6 ± 6.2%
"CC(C)N=c1cc2n(-c3ccc(Cl)cc3)c3ccccc3nc-2cc1Nc1ccc(Cl)cc1 [clofazimine, N,5-bis(4-chlorophenyl)-3-(1-methylethylimino)-5H-phenazin-2-amine]",Solubility in DMF and benzene,[6]; Merck Index,soluble
same,Solubility in acetone and ethyl acetate,[6]; Merck Index,sparingly soluble
same,Solubility in chloroform,[6]; Merck Index,15 parts
same,Solubility in ethanol,[6]; Merck Index,700 parts
same,Solubility in ether,[6]; Merck Index,1000 parts
same,Solution concentration that can be formed in methanol,"[6]; Sabnis et al., 2015",0.1%
same,Solubility in water,[6],practically insoluble
same,Patient population reporting at least one adverse drug effect,[7],47.5%
same,X50 particle diameter,[1],2.39 μm
same,X90 particle diameter,[1],5.29 μm
same,Duration of administration necessary to reach steady-state concentrations,[8],At least 30 days
same,solubility,[9],≤ 800 µg/mL
